Laboratory results from ChEMBL document CHEMBL5465560, “Selectivity Literature for EUbOPEN Chemogenomic Library” (2024).

How the values were obtained:
[1] = target: Poly [ADP-ribose] polymerase 1 (Homo sapiens, UniProt P09874); test: Selectivity interaction (Enzymatic assay (Reaction Biology)) EUB0001632a PARP1
[2] = target: T1, Inhibitor of nuclear factor kappa-B kinase subunit alpha (Homo sapiens) (UniProt O15111); details: at 10 µM
T1 sequence (whole entry): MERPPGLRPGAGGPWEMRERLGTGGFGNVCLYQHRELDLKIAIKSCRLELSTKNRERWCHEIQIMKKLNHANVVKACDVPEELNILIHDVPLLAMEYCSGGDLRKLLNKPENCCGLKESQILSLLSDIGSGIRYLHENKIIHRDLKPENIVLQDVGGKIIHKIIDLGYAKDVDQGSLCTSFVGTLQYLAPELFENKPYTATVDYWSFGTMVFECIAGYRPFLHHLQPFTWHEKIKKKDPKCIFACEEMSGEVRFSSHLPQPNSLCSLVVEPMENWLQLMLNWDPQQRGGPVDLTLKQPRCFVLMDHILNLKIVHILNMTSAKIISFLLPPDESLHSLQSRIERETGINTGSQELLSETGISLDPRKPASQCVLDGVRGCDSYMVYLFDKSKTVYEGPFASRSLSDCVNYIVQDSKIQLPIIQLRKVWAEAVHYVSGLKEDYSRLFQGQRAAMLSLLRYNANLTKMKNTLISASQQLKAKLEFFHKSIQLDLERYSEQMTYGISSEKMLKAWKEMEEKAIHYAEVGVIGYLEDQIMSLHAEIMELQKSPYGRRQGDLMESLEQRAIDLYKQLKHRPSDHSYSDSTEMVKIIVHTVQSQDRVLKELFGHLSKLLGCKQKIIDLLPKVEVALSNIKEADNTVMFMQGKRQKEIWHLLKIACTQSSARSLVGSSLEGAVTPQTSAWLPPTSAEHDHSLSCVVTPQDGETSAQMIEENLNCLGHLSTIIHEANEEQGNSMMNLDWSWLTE

[3] = target: T2, Histone-lysine N-methyltransferase EHMT2 (Homo sapiens) (UniProt Q96KQ7); test: Selectivity interaction (Methyltransferase screen (radiometric assays, panel of 8 PRMTs, 21 protein lysine methyltransferases, 3 DNA methyltransferases, and one RNA methyltransferase)) EUB0000271b EHMT2
T2 sequence (whole entry): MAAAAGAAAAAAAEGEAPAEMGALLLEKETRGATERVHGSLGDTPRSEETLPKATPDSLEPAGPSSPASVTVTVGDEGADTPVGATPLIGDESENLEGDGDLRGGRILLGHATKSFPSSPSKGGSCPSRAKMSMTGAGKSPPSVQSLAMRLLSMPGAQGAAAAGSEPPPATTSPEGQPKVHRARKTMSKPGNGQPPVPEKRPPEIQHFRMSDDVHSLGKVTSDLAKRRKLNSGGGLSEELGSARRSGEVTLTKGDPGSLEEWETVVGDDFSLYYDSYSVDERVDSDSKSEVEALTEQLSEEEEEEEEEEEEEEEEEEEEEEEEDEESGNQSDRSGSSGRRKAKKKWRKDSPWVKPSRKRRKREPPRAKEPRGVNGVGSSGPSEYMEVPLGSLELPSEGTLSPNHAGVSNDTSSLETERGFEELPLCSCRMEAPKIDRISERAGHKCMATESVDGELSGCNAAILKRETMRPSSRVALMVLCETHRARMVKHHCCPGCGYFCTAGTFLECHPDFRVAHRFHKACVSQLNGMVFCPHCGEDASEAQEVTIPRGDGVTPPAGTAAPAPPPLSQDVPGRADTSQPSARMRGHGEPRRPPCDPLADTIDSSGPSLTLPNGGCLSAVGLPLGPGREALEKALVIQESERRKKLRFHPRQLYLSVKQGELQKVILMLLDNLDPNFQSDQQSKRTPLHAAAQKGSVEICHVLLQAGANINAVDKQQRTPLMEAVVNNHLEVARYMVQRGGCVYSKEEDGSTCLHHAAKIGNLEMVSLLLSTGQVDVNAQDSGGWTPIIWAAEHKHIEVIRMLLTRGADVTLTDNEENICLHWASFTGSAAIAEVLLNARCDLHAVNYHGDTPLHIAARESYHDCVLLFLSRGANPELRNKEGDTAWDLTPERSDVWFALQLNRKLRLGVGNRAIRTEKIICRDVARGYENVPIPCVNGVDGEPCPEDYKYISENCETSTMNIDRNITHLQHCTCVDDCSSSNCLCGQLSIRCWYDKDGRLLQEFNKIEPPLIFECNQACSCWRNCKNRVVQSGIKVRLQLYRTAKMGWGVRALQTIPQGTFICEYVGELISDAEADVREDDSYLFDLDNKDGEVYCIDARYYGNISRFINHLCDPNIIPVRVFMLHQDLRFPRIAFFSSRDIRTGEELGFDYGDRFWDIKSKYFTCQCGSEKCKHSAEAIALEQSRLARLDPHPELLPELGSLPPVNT

[4] = target: T3, Tyrosine-protein kinase Tec (Homo sapiens) (UniProt P42680); test: Selectivity interaction (KinomeScan (DiscoverX)) EUB0001049a TEC; details: at 1 µM
T3 sequence (whole entry): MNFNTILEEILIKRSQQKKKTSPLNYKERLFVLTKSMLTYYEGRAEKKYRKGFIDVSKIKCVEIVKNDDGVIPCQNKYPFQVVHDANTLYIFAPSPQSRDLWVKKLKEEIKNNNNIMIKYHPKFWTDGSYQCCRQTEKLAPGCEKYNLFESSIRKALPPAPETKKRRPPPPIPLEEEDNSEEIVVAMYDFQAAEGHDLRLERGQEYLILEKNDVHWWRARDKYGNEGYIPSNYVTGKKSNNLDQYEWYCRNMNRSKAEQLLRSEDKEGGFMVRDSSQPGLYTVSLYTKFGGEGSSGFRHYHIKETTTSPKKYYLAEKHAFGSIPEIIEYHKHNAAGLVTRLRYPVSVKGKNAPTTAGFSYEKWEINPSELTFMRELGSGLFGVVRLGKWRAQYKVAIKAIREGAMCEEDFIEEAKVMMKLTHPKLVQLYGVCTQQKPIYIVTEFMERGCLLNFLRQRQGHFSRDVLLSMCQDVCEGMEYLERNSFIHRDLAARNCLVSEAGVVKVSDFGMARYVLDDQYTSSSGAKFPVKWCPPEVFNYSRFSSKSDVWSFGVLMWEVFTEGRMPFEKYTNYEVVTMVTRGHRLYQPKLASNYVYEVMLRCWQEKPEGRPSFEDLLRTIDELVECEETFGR

Sequence of Poly [ADP-ribose] polymerase 1 (P09874 whole entry): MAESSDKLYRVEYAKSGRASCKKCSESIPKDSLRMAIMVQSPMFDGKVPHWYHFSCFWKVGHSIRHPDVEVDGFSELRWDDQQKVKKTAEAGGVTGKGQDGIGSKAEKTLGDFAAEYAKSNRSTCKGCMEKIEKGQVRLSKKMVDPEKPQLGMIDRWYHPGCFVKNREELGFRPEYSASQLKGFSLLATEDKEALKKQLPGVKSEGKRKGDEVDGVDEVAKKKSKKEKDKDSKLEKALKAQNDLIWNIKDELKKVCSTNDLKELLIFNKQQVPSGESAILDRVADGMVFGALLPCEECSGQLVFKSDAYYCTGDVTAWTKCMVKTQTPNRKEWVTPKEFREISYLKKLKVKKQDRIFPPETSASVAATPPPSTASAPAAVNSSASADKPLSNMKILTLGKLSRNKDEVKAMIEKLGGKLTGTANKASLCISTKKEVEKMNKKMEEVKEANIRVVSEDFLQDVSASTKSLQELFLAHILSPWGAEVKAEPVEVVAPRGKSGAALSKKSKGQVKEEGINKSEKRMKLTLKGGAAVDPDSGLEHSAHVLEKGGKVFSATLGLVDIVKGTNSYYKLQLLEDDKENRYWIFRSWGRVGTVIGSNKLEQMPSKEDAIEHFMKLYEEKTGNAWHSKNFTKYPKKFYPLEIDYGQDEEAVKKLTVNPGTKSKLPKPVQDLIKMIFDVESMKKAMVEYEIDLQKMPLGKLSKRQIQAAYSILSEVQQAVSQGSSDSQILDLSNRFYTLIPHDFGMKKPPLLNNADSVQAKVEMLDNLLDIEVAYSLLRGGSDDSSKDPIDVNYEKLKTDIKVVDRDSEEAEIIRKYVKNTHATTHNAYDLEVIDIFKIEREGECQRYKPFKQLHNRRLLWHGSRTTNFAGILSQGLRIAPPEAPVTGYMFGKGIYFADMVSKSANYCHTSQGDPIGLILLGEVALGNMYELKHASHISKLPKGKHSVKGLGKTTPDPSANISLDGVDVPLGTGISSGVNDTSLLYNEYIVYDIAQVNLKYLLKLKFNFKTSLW

Cn1cc(-n2cnc3c(NCc4nc5cc(Cl)c(Cl)cc5[nH]4)nc(N4CCOCC4)nc32)cn1
IC50 [1]: > 10 µM

Cc1cc([C@@H](C)Nc2ccccc2C(=O)O)c2nc(N3CCOCC3)cc(=O)n2c1 [AZD-6482]
% of control [2]: 100%

Cc1cc(C)cc([C@@H]2c3cc(C)ccc3NC(=O)CN2C(=O)c2ccc(Br)s2)c1
% of activity ([3]; at 1 µM): 96% | % of activity ([3]; at 10 µM): 96.3%

COc1cc(Nc2nc(C)cc(-c3cnn4nc(OC)ccc34)n2)cc(C(F)(F)F)c1
% of control [4]: 78%
